Test results published in patent publication US20100144773A1 (priority 2007, published 2010).
Read-outs that look alike come from different tables or passages of the source.

System: male Wistar rats injected with beta-amyloid peptide 25-35 into NBM
Details: 1 mg/kg once a day for 7 days from day 16 after amyloid injection, retention trial 24 h after acquisition, cut-off 180 s, n=8, control 48 ± 11
Method: Beta-amyloid was administered bilaterally into NBM of male Wistar rats in dose of 2 μg per each side. […] Control rats received saline intranasally. On day next to the last day of the treatment, passive avoidance performance in rats was tested for two consecutive days. A two-compartment, step-through, passive avoidance apparatus consisting of illuminated (25×40×25 cm) and dark (25×40×25 cm) compartments attached to an electrified grid floor and separated by a guillotine door (8×8 cm) was used. In the acquisition trial, the rat was placed in the illuminated compartment in a position its tail directed to the closed door for 2 min to habituate to the apparatus. The guillotine door was opened and time to enter to dark compartment was recorded. When the rat entered to dark compartment completely (four foots in dark compartment), the guillotine door was closed and the rat was delivered an electrical shock of 0.8 mA for 3 sec through the grid floor. After the shock, the rat was immediately placed in home cage. In the retention trial, conducted 24 h after the acquisition trial, the rat was placed in the illuminated compartment and the retention latency to enter into the dark compartment was recorded until 180 s had elapsed. […] Data are presented as retention latency mean±SD (n=8).

Structure (SMILES) | Latency (retention latency to enter the dark compartment, mean±SD) (intranasally) [s] | Latency (retention latency to enter the dark compartment, mean±SD) (intraperitoneally) [s]
C[N+](C)(C)CCO.O=C([O-])CCC(=O)O [Compound of formula (I)] | 103 ± 18 | 55 ± 18
C[N+](C)(C)CCO.O=C([O-])CCC(=O)[O-].[Na+] [Compound of formula (III)] | 87 ± 19 | 53 ± 28
C[N+](C)(C)CCO.O=C([O-])CCC(=O)[O-].[K+] [Compound of formula (IV)] | 65 ± 16 | 49 ± 17
